Laboratory results: US11771709B2, “ALK protein degradation agent and anti-tumor application thereof” (ShanghaiTech University, priority 2017, dated 2023)

How the values were obtained:
Type in all cases: cell-based
[1] = system: SR (NPM-ALK) cells; test: Growth inhibition IC50 in ALCL SR cells (CCK8/WST, 72 hours); settings: 72 h, SR cells, WST; Brigatinib-based PROTAD molecules (Table 3)
Description: SR (NPM-ALK) and NCI-H2228 (EML4-ALK, V3) cells were purchased from ATCC. […] All Cells were cultured in RPMI1640 medium with 10% FBS and Penicillin-Streptomycin in 37° C. incubator with 5% CO2.
Cells were seeded at specific density in 96 well plates one day before treatment. […] Viable cells were measured via CCK8 reagent and IC50s were calculated via Prism Graphad. Experiments were repeated at least three times.

[2] = target: T1, ALK protein in SR (NPM-ALK) cells (Homo sapiens, UniProt Q9UM73); test: Western blot of ALK protein level (degradation, DC50), ALK phosphorylation and downstream signaling in SR cells; settings: ALK protein degradation in SR cells
T1 construct: NPM (nucleophosmin, NPM1, P06748) fusion partner; host or cells: SR (ALCL) cells; the other entry of the earlier key: NPM1 (P06748, Nucleophosmin)
T1 sequence (Q9UM73 with tags, fused parts or gaps): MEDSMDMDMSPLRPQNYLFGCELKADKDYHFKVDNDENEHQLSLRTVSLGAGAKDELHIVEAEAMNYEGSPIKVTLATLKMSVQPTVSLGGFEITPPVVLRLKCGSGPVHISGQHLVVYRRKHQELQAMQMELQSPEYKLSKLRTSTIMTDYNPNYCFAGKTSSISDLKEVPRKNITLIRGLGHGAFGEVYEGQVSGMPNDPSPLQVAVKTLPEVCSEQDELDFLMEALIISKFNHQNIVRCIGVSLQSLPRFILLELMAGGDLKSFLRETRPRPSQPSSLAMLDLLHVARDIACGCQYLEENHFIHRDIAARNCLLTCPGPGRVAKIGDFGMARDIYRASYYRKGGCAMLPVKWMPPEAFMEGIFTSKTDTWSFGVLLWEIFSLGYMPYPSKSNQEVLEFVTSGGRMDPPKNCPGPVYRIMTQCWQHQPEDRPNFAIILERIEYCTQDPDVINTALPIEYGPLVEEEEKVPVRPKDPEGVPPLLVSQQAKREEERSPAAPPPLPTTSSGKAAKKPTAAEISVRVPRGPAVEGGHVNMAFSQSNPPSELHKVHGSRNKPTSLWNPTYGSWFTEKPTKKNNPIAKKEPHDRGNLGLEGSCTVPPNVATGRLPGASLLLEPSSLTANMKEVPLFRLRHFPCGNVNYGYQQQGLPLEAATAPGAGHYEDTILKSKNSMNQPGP

[3] = target: T2, ALK protein in H3122 (EML4-ALK) cells (Homo sapiens, UniProt Q9UM73); test: Western blot of ALK protein level (degradation, DC50), ALK phosphorylation and downstream signaling in H3122 cells; settings: ALK protein degradation in H3122 cells
T2 construct: EML4 (Echinoderm microtubule-associated protein-like 4, Q9HC35) fusion partner, variant 1; host or cells: NCI-H3122 lung adenocarcinoma cells; the other entry of the earlier key: EML4 (Q9HC35, Echinoderm microtubule-associated protein-like 4)
T2 sequence (Q9UM73 with tags, fused parts or gaps): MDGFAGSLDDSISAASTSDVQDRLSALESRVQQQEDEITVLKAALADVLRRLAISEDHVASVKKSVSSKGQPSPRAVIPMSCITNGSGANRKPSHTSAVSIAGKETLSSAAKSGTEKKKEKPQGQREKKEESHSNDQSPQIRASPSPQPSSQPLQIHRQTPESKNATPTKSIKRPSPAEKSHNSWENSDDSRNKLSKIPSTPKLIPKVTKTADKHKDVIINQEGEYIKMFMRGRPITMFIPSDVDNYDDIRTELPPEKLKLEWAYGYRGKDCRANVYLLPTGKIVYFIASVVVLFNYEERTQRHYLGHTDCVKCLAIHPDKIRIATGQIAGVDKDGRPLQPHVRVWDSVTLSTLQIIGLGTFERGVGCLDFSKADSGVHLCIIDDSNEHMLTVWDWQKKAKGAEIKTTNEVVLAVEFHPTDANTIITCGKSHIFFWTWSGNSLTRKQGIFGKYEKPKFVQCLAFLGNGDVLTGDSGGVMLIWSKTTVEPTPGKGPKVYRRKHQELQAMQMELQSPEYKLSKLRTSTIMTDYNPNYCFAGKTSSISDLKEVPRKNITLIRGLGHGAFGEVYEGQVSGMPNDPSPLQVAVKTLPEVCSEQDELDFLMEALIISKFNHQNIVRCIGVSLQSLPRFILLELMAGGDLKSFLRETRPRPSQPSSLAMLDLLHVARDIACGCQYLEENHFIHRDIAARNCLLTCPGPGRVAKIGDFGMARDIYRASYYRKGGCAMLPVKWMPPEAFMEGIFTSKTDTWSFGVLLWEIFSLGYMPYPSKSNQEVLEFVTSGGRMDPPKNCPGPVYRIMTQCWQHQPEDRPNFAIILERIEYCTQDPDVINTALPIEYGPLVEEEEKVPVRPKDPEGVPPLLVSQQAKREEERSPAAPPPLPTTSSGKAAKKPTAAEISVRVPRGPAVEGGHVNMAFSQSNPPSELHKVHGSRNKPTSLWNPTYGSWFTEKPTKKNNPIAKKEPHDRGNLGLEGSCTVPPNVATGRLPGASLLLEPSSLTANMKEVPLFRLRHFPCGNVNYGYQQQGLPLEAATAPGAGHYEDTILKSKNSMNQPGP

| Compound | IC50 [1] [nM] | DC50 [2] [nM] | DC50 [3] [nM] |
| --- | --- | --- | --- |
| COc1cc(N2CCC(N3CCN(C(=O)CCOCCOCCC(=O)N[C@H](C(=O)N4C[C@H](O)C[C@H]4C(=O)NCc4ccc(-c5scnc5C)cc4)C(C)(C)C)CC3)CC2)ccc1Nc1ncc(Cl)c(Nc2ccccc2P(C)(C)=O)n1 [SIAIS164032, (2S,4R)-1-((S)-2-(3-(2-(3-(4-(1-(4-((5-chloro-4-((2-(dimethylphosphoryl)phenyl)amino)pyrimidin-2-yl)amino)-3-methoxyphenyl)piperidin-4-yl)piperazin-1-yl)-3-oxopropoxy)ethoxy)propanamido)-3,3-dimethylbutanoyl)-4-hydroxy-N-(4-(4-methylthiazol-5-yl)benzyl)pyrrolidine-2-carboxamide] | 54.5 ± 31.2 | 100 to 500 | 20 to 100 |
| COc1cc(N2CCC(N3CCN(C(=O)CCOCCOCCOCCC(=O)N[C@H](C(=O)N4C[C@H](O)C[C@H]4C(=O)NCc4ccc(-c5scnc5C)cc4)C(C)(C)C)CC3)CC2)ccc1Nc1ncc(Cl)c(Nc2ccccc2P(C)(C)=O)n1 [SIAIS164033, (2S,4R)-1-((S)-2-(tert-butyl)-16-(4-(1-(4-((5-chloro-4-((2-(dimethylphosphoryl)phenyl)amino)pyrimidin-2-yl)amino)-3-methoxyphenyl)piperidin-4-yl)piperazin-1-yl)-4,16-dioxo-7,10,13-trioxa-3-azahexadecanoyl)-4-hydroxy-N-(4-(4-methylthiazol-5-yl)benzyl)pyrrolidine-2-carboxamide] | 50.1 ± 34.9 | 100 to 500 | 100 to 500 |
| COc1cc(N2CCC(N3CCN(C(=O)CCOCCOCCOCCOCCC(=O)N[C@H](C(=O)N4C[C@H](O)C[C@H]4C(=O)NCc4ccc(-c5scnc5C)cc4)C(C)(C)C)CC3)CC2)ccc1Nc1ncc(Cl)c(Nc2ccccc2P(C)(C)=O)n1 [SIAIS164034, (2S,4R)-1-((S)-2-(tert-butyl)-19-(4-(1-(4-((5-chloro-4-((2-(dimethylphosphoryl)phenyl)amino)pyrimidin-2-yl)amino)-3-methoxyphenyl)piperidin-4-yl)piperazin-1-yl)-4,19-dioxo-7,10,13,16-tetraoxa-3-azanonadecanoyl)-4-hydroxy-N-(4-(4-methylthiazol-5-yl)benzyl)pyrrolidine-2-carboxamide] | 88.6 ± 63 | 100 to 500 | 100 to 500 |
| COc1cc(N2CCC(N3CCN(C(=O)CCOCCOCCOCCOCCOCCC(=O)N[C@H](C(=O)N4C[C@H](O)C[C@H]4C(=O)NCc4ccc(-c5scnc5C)cc4)C(C)(C)C)CC3)CC2)ccc1Nc1ncc(Cl)c(Nc2ccccc2P(C)(C)=O)n1 [SIAIS164035, (2S,4R)-1-((S)-2-(tert-butyl)-22-(4-(1-(4-((5-chloro-4-((2-(dimethylphosphoryl)phenyl)amino)pyrimidin-2-yl)amino)-3-methoxyphenyl)piperidin-4-yl)piperazin-1-yl)-4,22-dioxo-7,10,13,16,19-pentaoxa-3-azadocosanoyl)-4-hydroxy-N-(4-(4-methylthiazol-5-yl)benzyl)pyrrolidine-2-carboxamide] | 41.8 ± 24.7 | 100 to 500 | 100 to 500 |
| COc1cc(N2CCC(N3CCN(C(=O)COCCOCC(=O)N[C@H](C(=O)N4C[C@H](O)C[C@H]4C(=O)NCc4ccc(-c5scnc5C)cc4)C(C)(C)C)CC3)CC2)ccc1Nc1ncc(Cl)c(Nc2ccccc2P(C)(C)=O)n1 [SIAIS164041, (2S,4R)-1-((S)-2-(2-(2-(2-(4-(1-(4-((5-chloro-4-((2-(dimethylphosphoryl)phenyl)amino)pyrimidin-2-yl)amino)-3-methoxyphenyl)piperidin-4-yl)piperazin-1-yl)-2-oxoethoxy)ethoxy)acetamido)-3,3-dimethylbutanoyl)-4-hydroxy-N-(4-(4-methylthiazol-5-yl)benzyl)pyrrolidine-2-carboxamide] | 42.7 ± 29.4 | 10 to 50 | 10 to 500 |
| COc1cc(N2CCC(N3CCN(C(=O)CCC(=O)N[C@H](C(=O)N4C[C@H](O)C[C@H]4C(=O)NCc4ccc(-c5scnc5C)cc4)C(C)(C)C)CC3)CC2)ccc1Nc1ncc(Cl)c(Nc2ccccc2P(C)(C)=O)n1 [SIAIS164120, (2S,4R)-1-((S)-2-(4-(4-(1-(4-((5-chloro-4-((2-(dimethylphosphoryl)phenyl)amino)pyrimidin-2-yl)amino)-3-methoxyphenyl)piperidin-4-yl)piperazin-1-yl)-4-oxobutanamido)-3,3-dimethylbutanoyl)-4-hydroxy-N-(4-(4-methylthiazol-5-yl)benzyl)pyrrolidine-2-carboxamide] | 19.2 ± 8.8 | 1 to 10 | 10 to 100 |
| COc1cc(N2CCC(N3CCN(C(=O)CCCC(=O)N[C@H](C(=O)N4C[C@H](O)C[C@H]4C(=O)NCc4ccc(-c5scnc5C)cc4)C(C)(C)C)CC3)CC2)ccc1Nc1ncc(Cl)c(Nc2ccccc2P(C)(C)=O)n1 [SIAIS164121, (2S,4R)-1-((S)-2-(5-(4-(1-(4-((5-chloro-4-((2-(dimethylphosphoryl)phenyl)amino)pyrimidin-2-yl)amino)-3-methoxyphenyl)piperidin-4-yl)piperazin-1-yl)-5-oxopentanamido)-3,3-dimethylbutanoyl)-4-hydroxy-N-(4-(4-methylthiazol-5-yl)benzyl)pyrrolidine-2-carboxamide] | 21.6 ± 12.5 | 1 to 10 | 50 to 100 |
| COc1cc(N2CCC(N3CCN(C(=O)CCCCC(=O)N[C@H](C(=O)N4C[C@H](O)C[C@H]4C(=O)NCc4ccc(-c5scnc5C)cc4)C(C)(C)C)CC3)CC2)ccc1Nc1ncc(Cl)c(Nc2ccccc2P(C)(C)=O)n1 [SIAIS164122, (2S,4R)-1-((S)-2-(6-(4-(1-(4-((5-chloro-4-((2-(dimethylphosphoryl)phenyl)amino)pyrimidin-2-yl)amino)-3-methoxyphenyl)piperidin-4-yl)piperazin-1-yl)-6-oxohexanamido)-3,3-dimethylbutanoyl)-4-hydroxy-N-(4-(4-methylthiazol-5-yl)benzyl)pyrrolidine-2-carboxamide] | 12.1 ± 9.2 | 1 to 50 | 50 to 100 |
| COc1cc(N2CCC(N3CCN(C(=O)CCCCCC(=O)N[C@H](C(=O)N4C[C@H](O)C[C@H]4C(=O)NCc4ccc(-c5scnc5C)cc4)C(C)(C)C)CC3)CC2)ccc1Nc1ncc(Cl)c(Nc2ccccc2P(C)(C)=O)n1 [SIAIS164123, (2S,4R)-1-((S)-2-(7-(4-(1-(4-((5-chloro-4-((2-(dimethylphosphoryl)phenyl)amino)pyrimidin-2-yl)amino)-3-methoxyphenyl)piperidin-4-yl)piperazin-1-yl)-7-oxoheptanamido)-3,3-dimethylbutanoyl)-4-hydroxy-N-(4-(4-methylthiazol-5-yl)benzyl)pyrrolidine-2-carboxamide] | 11.4 ± 8.1 | 1 to 50 | 10 to 50 |
| COc1cc(N2CCC(N3CCN(C(=O)CCCCCCC(=O)N[C@H](C(=O)N4C[C@H](O)C[C@H]4C(=O)NCc4ccc(-c5scnc5C)cc4)C(C)(C)C)CC3)CC2)ccc1Nc1ncc(Cl)c(Nc2ccccc2P(C)(C)=O)n1 [SIAIS164124, (2S,4R)-1-((S)-2-(8-(4-(-(4-((5-chloro-4-((2-(dimethylphosphoryl)phenyl)amino)pyrimidin-2-yl)amino)-3-methoxyphenyl)piperidin-4-yl)piperazin-1-yl)-8-oxooctanamido)-3,3-dimethylbutanoyl)-4-hydroxy-N-(4-(4-methylthiazol-5-yl)benzyl)pyrrolidine-2-carboxamide] | 9.5 ± 8.1 | 1 to 10 | 100 to 500 |
| COc1cc(N2CCC(N3CCN(C(=O)CCCCCCCC(=O)N[C@H](C(=O)N4C[C@H](O)C[C@H]4C(=O)NCc4ccc(-c5scnc5C)cc4)C(C)(C)C)CC3)CC2)ccc1Nc1ncc(Cl)c(Nc2ccccc2P(C)(C)=O)n1 [SIAIS164125, (2S,4R)-1-((S)-2-(9-(4-(1-(4-((5-chloro-4-((2-(dimethylphosphoryl)phenyl)amino)pyrimidin-2-yl)amino)-3-methoxyphenyl)piperidin-4-yl)piperazin-1-yl)-9-oxononanamido)-3,3-dimethylbutanoyl)-4-hydroxy-N-(4-(4-methylthiazol-5-yl)benzyl)pyrrolidine-2-carboxamide] | 9 ± 5.7 | 1 to 10 | 10 to 50 |
| COc1cc(N2CCC(N3CCN(C(=O)CCCCCCCCC(=O)N[C@H](C(=O)N4C[C@H](O)C[C@H]4C(=O)NCc4ccc(-c5scnc5C)cc4)C(C)(C)C)CC3)CC2)ccc1Nc1ncc(Cl)c(Nc2ccccc2P(C)(C)=O)n1 [SIAIS164126, (2S,4R)-1-((S)-2-(10-(4-(1-(4-((5-chloro-4-((2-(dimethylphosphoryl)phenyl)amino)pyrimidin-2-yl)amino)-3-methoxyphenyl)piperidin-4-yl)piperazin-1-yl)-10-oxodecanamido)-3,3-dimethylbutanoyl)-4-hydroxy-N-(4-(4-methylthiazol-5-yl)benzyl)pyrrolidine-2-carboxamide] | 8 ± 6.7 | 1 to 10 | 10 to 50 |
| COc1cc(N2CCC(NC(=O)CCC(=O)N[C@H](C(=O)N3C[C@H](O)C[C@H]3C(=O)NCc3ccc(-c4scnc4C)cc3)C(C)(C)C)CC2)ccc1Nc1ncc(Cl)c(Nc2ccccc2P(C)(C)=O)n1 [SIAIS164143, N1-(1-(4-((5-chloro-4-((2-(dimethylphosphoryl)phenyl)amino)pyrimidin-2-yl)amino)-3-methoxyphenyl)piperidin-4-yl)-N4-((S)-1-((2S,4R)-4-hydroxy-2-((4-(4-methylthiazol-5-yl)benzyl)carbamoyl)pyrrolidin-1-yl)-3,3-dimethyl-1-oxobutan-2-yl) succinamide] | 11.7 ± 4.2 | 1 to 10 | 50 to 100 |
